The test has as its system MV-4-11 cells. Description: Gene expression microarray analysis (Affymetrix PrimeView) and GSEA. To be noted: ProbeSet 11722463_a_at; LIST B. The format is cell-based, human. Also on record: RFU PODN (11730768_x_at) / Fold change /veh PODN (11730768_x_at) / RFU LINC00158 (11744669_a_at) / Fold change /veh LINC00158 (11744669_a_at) / RFU DUSP10 (11751237_a_at) / Fold change /veh DUSP10 (11751237_a_at) / RFU ID3 (11757404_x_at) / Fold change /veh ID3 (11757404_x_at) / RFU PLEKHG5 (11737974_s_at) / Fold change /veh PLEKHG5 (11737974_s_at) / RFU LRRC4B (11730491_at) / Fold change /veh LRRC4B (11730491_at) / RFU GIMAP4 (11747438_a_at) / Fold change /veh GIMAP4 (11747438_a_at) / RFU KRT8 (11758183_x_at) / Fold change /veh KRT8 (11758183_x_at) / RFU CNN1 (11734310_a_at) / Fold change /veh CNN1 (11734310_a_at) / RFU VPS37D (11726825_at) / Fold change /veh VPS37D (11726825_at) / RFU C10orf10 (11716522_x_at) / Fold change /veh C10orf10 (11716522_x_at) / RFU KIR2DL2 /// KIR2DL4 /// KIR2DL5A /// KIR2DL5B /// KIR2DS1 /// KIR2DS2 /// KIR2DS3 /// KIR2DS4 /// KIR3DL3 /// KIR3DL3 /// KIR3DS1 (11738374_at) / Fold change /veh KIR2DL2 /// KIR2DL4 /// KIR2DL5A /// KIR2DL5B /// KIR2DS1 /// KIR2DS2 /// KIR2DS3 /// KIR2DS4 /// KIR3DL3 /// KIR3DL3 /// KIR3DS1 (11738374_at) / RFU C1QL1 (11718748_at) / Fold change /veh C1QL1 (11718748_at) / RFU TMPRSS4 (11747572_a_at) / Fold change /veh TMPRSS4 (11747572_a_at) / RFU HAMP (11756126_x_at) / Fold change /veh HAMP (11756126_x_at) / RFU RNFT2 (11725882_a_at) / Fold change /veh RNFT2 (11725882_a_at) / RFU NR4A2 (11747474_a_at) / Fold change /veh NR4A2 (11747474_a_at) / RFU ABCC12 (11746883_a_at) / Fold change /veh ABCC12 (11746883_a_at) / RFU TMEM136 (11760407_x_at) / Fold change /veh TMEM136 (11760407_x_at) / RFU CLDN22 /// WWC2 (11732394_at) / Fold change /veh CLDN22 /// WWC2 (11732394_at) / RFU HLA-DPB1 (11760878_x_at) / Fold change /veh HLA-DPB1 (11760878_x_at) / RFU SPINT1 (11716480_a_at) / Fold change /veh SPINT1 (11716480_a_at) / RFU GAP43 (11754022_s_at) / Fold change /veh GAP43 (11754022_s_at) / RFU A4GNT (11735810_at) / Fold change /veh A4GNT (11735810_at) / RFU PRB3 (11715151_x_at) / Fold change /veh PRB3 (11715151_x_at) / RFU TUBB4B (11761932_at) / Fold change /veh TUBB4B (11761932_at) / RFU CAPN14 (11732068_a_at) / Fold change /veh CAPN14 (11732068_a_at) / RFU TMCC2 (11721928_a_at) / Fold change /veh TMCC2 (11721928_a_at) / RFU IRGQ (11745062_a_at) / Fold change /veh IRGQ (11745062_a_at) / RFU FAM174B (11720279_a_at) / Fold change /veh FAM174B (11720279_a_at) / RFU TMPRSS4 (11748680_a_at) / Fold change /veh TMPRSS4 (11748680_a_at) / RFU FAM212B (11763350_a_at) / Fold change /veh FAM212B (11763350_a_at) / RFU PLEKHG5 (11743358_a_at) / Fold change /veh PLEKHG5 (11743358_a_at) / RFU ZSCAN30 (11745921_a_at) / Fold change /veh ZSCAN30 (11745921_a_at) / RFU CMKLR1 (11741424_a_at) / Fold change /veh CMKLR1 (11741424_a_at) / RFU LOC101060620 /// MAPK8IP1 (11723275_at) / Fold change /veh LOC101060620 /// MAPK8IP1 (11723275_at) / RFU SPTSSB (11747773_x_at) / Fold change /veh SPTSSB (11747773_x_at) / RFU PRSS12 (11739890_at) / Fold change /veh PRSS12 (11739890_at) / RFU BIN1 (11741810_x_at) / Fold change /veh BIN1 (11741810_x_at) / RFU WNT11 (11732464_a_at) / Fold change /veh WNT11 (11732464_a_at) / RFU C10orf10 (11716521_a_at) / Fold change /veh C10orf10 (11716521_a_at) / RFU C5orf56 (11738089_at) / Fold change /veh C5orf56 (11738089_at) / RFU CYB561 (11721691_x_at) / Fold change /veh CYB561 (11721691_x_at) / RFU ANKRD19P (11752326_a_at) / Fold change /veh ANKRD19P (11752326_a_at) / RFU OR2T12 /// OR2T33 /// OR2T8 (11738714_s_at) / Fold change /veh OR2T12 /// OR2T33 /// OR2T8 (11738714_s_at) / RFU VCAN (11748164_a_at) / Fold change /veh VCAN (11748164_a_at) / RFU JSRP1 (11732532_at) / Fold change /veh JSRP1 (11732532_at) / RFU KRTAP10-11 (11738290_x_at) / Fold change /veh KRTAP10-11 (11738290_x_at) / RFU MYO3A (11730013_a_at) / Fold change /veh MYO3A (11730013_a_at) / RFU EBF3 (11725865_a_at) / Fold change /veh EBF3 (11725865_a_at) / RFU CAMK2N1 (11719241_x_at) / Fold change /veh CAMK2N1 (11719241_x_at) / RFU C5orf56 (11738088_a_at) / Fold change /veh C5orf56 (11738088_a_at) / RFU OLFML3 (11715873_a_at) / Fold change /veh OLFML3 (11715873_a_at) / RFU LOC100653217 /// NTM (11731650_a_at) / Fold change /veh LOC100653217 /// NTM (11731650_a_at) / RFU MAPK11 (11762145_a_at) / Fold change /veh MAPK11 (11762145_a_at) / RFU FIZ1 (11724087_x_at) / Fold change /veh FIZ1 (11724087_x_at) / RFU OASL (11726364_x_at) / Fold change /veh OASL (11726364_x_at) / RFU SOX15 (11748057_x_at) / Fold change /veh SOX15 (11748057_x_at) / RFU CD79A (11719716_a_at) / Fold change /veh CD79A (11719716_a_at) / RFU HIST1H1D (11736915_at) / Fold change /veh HIST1H1D (11736915_at) / RFU CASKIN2 (11723855_a_at) / Fold change /veh CASKIN2 (11723855_a_at) / RFU LOC730098 (11760151_x_at) / Fold change /veh LOC730098 (11760151_x_at) / RFU OR4N2 (11742367_at) / Fold change /veh OR4N2 (11742367_at) / RFU PRRT2 (11749266_a_at) / Fold change /veh PRRT2 (11749266_a_at) / RFU SNX32 (11753110_a_at) / Fold change /veh SNX32 (11753110_a_at) / RFU CDHR5 (11726645_a_at) / Fold change /veh CDHR5 (11726645_a_at) / RFU RCAN1 (11760418_a_at) / Fold change /veh RCAN1 (11760418_a_at) / RFU FAM167A (11723789_a_at) / Fold change /veh FAM167A (11723789_a_at) / RFU FAM26E (11764081_at) / Fold change /veh FAM26E (11764081_at) / RFU ISYNA1 (11749810_s_at) / Fold change /veh ISYNA1 (11749810_s_at) / RFU ACY1 (11761880_at) / Fold change /veh ACY1 (11761880_at) / RFU 11764098_at / Fold change /veh 11764098_at / RFU SAMD14 (11745864_x_at) / Fold change /veh SAMD14 (11745864_x_at) / RFU NPB (11741838_a_at) / Fold change /veh NPB (11741838_a_at) / RFU TMPRSS6 (11731388_a_at) / Fold change /veh TMPRSS6 (11731388_a_at) / RFU KRTAP10-2 (11738614_at) / Fold change /veh KRTAP10-2 (11738614_at) / RFU ARHGAP8 /// PRR5-ARHGAP8 (11727945_x_at) / Fold change /veh ARHGAP8 /// PRR5-ARHGAP8 (11727945_x_at) / RFU KRTAP5-7 /// NADSYN1 (11734609_at) / Fold change /veh KRTAP5-7 /// NADSYN1 (11734609_at) / RFU RASL12 (11751679_a_at) / Fold change /veh RASL12 (11751679_a_at) / RFU CDKN2B (11736163_a_at) / Fold change /veh CDKN2B (11736163_a_at) / RFU PRF1 (11729649_at) / Fold change /veh PRF1 (11729649_at) / RFU, ZNF638 /// ZNF638-IT1 / Fold change vs veh, ZNF638 /// ZNF638-IT1 / RFU, PANK3 / Fold change vs veh, PANK3 / RFU, SH3YL1 / Fold change vs veh, SH3YL1 / RFU, ZEB2 / Fold change vs veh, ZEB2 / RFU, NRIP1 / Fold change vs veh, NRIP1 / RFU, PTTG1IP / Fold change vs veh, PTTG1IP / RFU, CAPN2 / Fold change vs veh, CAPN2 / RFU, MED14 / Fold change vs veh, MED14 / RFU, SNORA58 / Fold change vs veh, SNORA58 / RFU, C1orf63 / Fold change vs veh, C1orf63 / RFU, LRRFIP1 / Fold change vs veh, LRRFIP1 / RFU, NDUFAF7 / Fold change vs veh, NDUFAF7 / RFU, SLC12A2 / Fold change vs veh, SLC12A2 / RFU, IBTK / Fold change vs veh, IBTK / RFU, ESF1 / Fold change vs veh, ESF1 / Fold change vs veh, TMEM50B / RFU, TAOK1 / Fold change vs veh, TAOK1 / RFU, ACBD3 / Fold change vs veh, ACBD3 / RFU, TMA16 / Fold change vs veh, TMA16 / RFU, RWDD3 / Fold change vs veh, RWDD3 / RFU, BCAT1 / Fold change vs veh, BCAT1 / RFU, EDEM3 / Fold change vs veh, EDEM3 / RFU, TMEM33 / Fold change vs veh, TMEM33 / RFU, WDR75 / Fold change vs veh, WDR75 / RFU, AHCTF1 / Fold change vs veh, AHCTF1 / RFU, TFRC / Fold change vs veh, TFRC / RFU, ZDHHC17 / Fold change vs veh, ZDHHC17 / RFU, NOM1 / Fold change vs veh, NOM1 / RFU, ARL8B / Fold change vs veh, ARL8B / RFU, ZBTB11 / Fold change vs veh, ZBTB11 / RFU, TAMM41 / Fold change vs veh, TAMM41 / RFU, KIAA1704 /// LOC100996395 / Fold change vs veh, KIAA1704 /// LOC100996395 / RFU, ING1 / Fold change vs veh, ING1 / RFU, TRMT61B / Fold change vs veh, TRMT61B / RFU, FUBP3 / Fold change vs veh, FUBP3 / RFU, TP53 / Fold change vs veh, TP53 / RFU, TNKS2 / Fold change vs veh, TNKS2 / RFU, ZFP14 / Fold change vs veh, ZFP14 / RFU, ACTR2 / Fold change vs veh, ACTR2 / RFU, PPP3R1 / Fold change vs veh, PPP3R1 / RFU, PIK3R1 / Fold change vs veh, PIK3R1 / RFU, HNRNPA1 / Fold change vs veh, HNRNPA1 / RFU, RNF170 / Fold change vs veh, RNF170 / RFU, ZNF28 / Fold change vs veh, ZNF28 / RFU, RNGTT / Fold change vs veh, RNGTT / RFU, OGT / Fold change vs veh, OGT / RFU, BRD1 / Fold change vs veh, BRD1 / RFU, MARS / Fold change vs veh, MARS / RFU, ZNF655 / Fold change vs veh, ZNF655 / RFU, FAHD1 / Fold change vs veh, FAHD1 / RFU, BDP1 / Fold change vs veh, BDP1 / RFU, LRRCC1 / Fold change vs veh, LRRCC1 / RFU, ARID1A / Fold change vs veh, ARID1A / RFU, ZNF146 / Fold change vs veh, ZNF146 / RFU, ZNF330 / Fold change vs veh, ZNF330 / RFU, GPN3 / Fold change vs veh, GPN3 / RFU, C9orf123 / Fold change vs veh, C9orf123 / RFU, N4BP2L2 / Fold change vs veh, N4BP2L2 / RFU, ARFIP1 / Fold change vs veh, ARFIP1 / RFU, FAM179B / Fold change vs veh, FAM179B / RFU, BCL10 / Fold change vs veh, BCL10 / RFU, UHRF1BP1L / Fold change vs veh, UHRF1BP1L / RFU, BET1 / Fold change vs veh, BET1 / RFU, CNOT2 / Fold change vs veh, CNOT2 / RFU, ZNF268 / Fold change vs veh, ZNF268 / Fold change vs veh, ZNF507 / RFU, DGCR2 / Fold change vs veh, DGCR2 / RFU, WDSUB1 / Fold change vs veh, WDSUB1 / Fold change vs veh, HSP90B1 /// MIR3652 / RFU, ADSS / Fold change vs veh, ADSS / RFU, GK / Fold change vs veh, GK / RFU, ZNF148 / Fold change vs veh, ZNF148 / RFU, TAF9 / Fold change vs veh, TAF9 / RFU, SLC1A5 / Fold change vs veh, SLC1A5 / RFU, SLMO2 / Fold change vs veh, SLMO2 / RFU, ABCC4 / Fold change vs veh, ABCC4 / RFU, LOC101060439 /// RAP1B / Fold change vs veh, LOC101060439 /// RAP1B / RFU, RFX7 / Fold change vs veh, RFX7 / RFU, GTPBP10 / Fold change vs veh, GTPBP10 / RFU, CNEP1R1 / Fold change vs veh, CNEP1R1 / RFU, BIVM-ERCC5 /// ERCC5 / Fold change vs veh, BIVM-ERCC5 /// ERCC5 / RFU, ILF3 / Fold change vs veh, ILF3 / RFU 11762660_at / Fold change /veh 11762660_at / RFU VCAN (11757783_s_at) / Fold change /veh VCAN (11757783_s_at) / RFU DDX43 (11728927_at) / Fold change /veh DDX43 (11728927_at) / RFU KRT8 (11758188_x_at) / Fold change /veh KRT8 (11758188_x_at) / RFU NKD1 (11759106_at) / Fold change /veh NKD1 (11759106_at) / RFU SRD5A1 (11742802_a_at) / Fold change /veh SRD5A1 (11742802_a_at) / RFU TPSAB1 /// TPSB2 (11721975_s_at) / Fold change /veh TPSAB1 /// TPSB2 (11721975_s_at) / RFU GSTM3 (11746129_a_at) / Fold change /veh GSTM3 (11746129_a_at) / RFU IL23R (11737362_x_at) / Fold change /veh IL23R (11737362_x_at) / RFU TMEM51 (11727254_a_at) / Fold change /veh TMEM51 (11727254_a_at) / RFU PIWIL2 (11732686_x_at) / Fold change /veh PIWIL2 (11732686_x_at) / RFU ORM1 (11744905_x_at) / Fold change /veh ORM1 (11744905_x_at) / RFU CCDC152 (11743942_at) / Fold change /veh CCDC152 (11743942_at) / RFU ECM1 (11717891_a_at) / Fold change /veh ECM1 (11717891_a_at) / RFU IL23R (11748794_a_at) / Fold change /veh IL23R (11748794_a_at) / RFU TNFAIP8L3 (11732012_x_at) / Fold change /veh TNFAIP8L3 (11732012_x_at) / RFU MBOAT4 (11741988_at) / Fold change /veh MBOAT4 (11741988_at) / RFU 11764193_at / Fold change /veh 11764193_at / RFU TMEM53 (11763286_at) / Fold change /veh TMEM53 (11763286_at) / RFU MAGEB2 (11727129_at) / Fold change /veh MAGEB2 (11727129_at) / RFU TMEM200A (11744735_a_at) / Fold change /veh TMEM200A (11744735_a_at) / RFU CCDC152 (11751479_a_at) / Fold change /veh CCDC152 (11751479_a_at) / RFU FAM211A (11726209_a_at) / Fold change /veh FAM211A (11726209_a_at) / RFU RGS16 (11746705_a_at) / Fold change /veh RGS16 (11746705_a_at) / RFU VCAN (11755009_s_at) / Fold change /veh VCAN (11755009_s_at) / RFU RHOB (11743442_s_at) / Fold change /veh RHOB (11743442_s_at) / RFU RGS16 (11720943_a_at) / Fold change /veh RGS16 (11720943_a_at) / RFU RGS16 (11720944_at) / Fold change /veh RGS16 (11720944_at) / RFU, VPS4B / Fold change vs veh, VPS4B / RFU, CREB1 / Fold change vs veh, CREB1 / RFU, DNAJC13 / Fold change vs veh, DNAJC13 / RFU, GNAQ / Fold change vs veh, GNAQ / RFU, CDK5R1 / Fold change vs veh, CDK5R1 / RFU, ZRANB3 / Fold change vs veh, ZRANB3 / RFU, CUL4A / Fold change vs veh, CUL4A / RFU, CCNY / Fold change vs veh, CCNY / RFU, UFL1 / Fold change vs veh, UFL1 / RFU, COG3 / Fold change vs veh, COG3 / RFU, DIAPH2 / Fold change vs veh, DIAPH2 / RFU, SKA2 / Fold change vs veh, SKA2 / RFU, AFF3 / Fold change vs veh, AFF3 / RFU, LMF1 / Fold change vs veh, LMF1 / RFU, IPO11 / Fold change vs veh, IPO11 / RFU, DFFB / Fold change vs veh, DFFB / RFU, FOXP1 / Fold change vs veh, FOXP1 / RFU, CARD8 / Fold change vs veh, CARD8 / RFU, STRN3 / Fold change vs veh, STRN3 / RFU, ADK / Fold change vs veh, ADK / RFU, RASSF2 / Fold change vs veh, RASSF2 / RFU, WIPF1 / Fold change vs veh, WIPF1 / RFU, LARP1B / Fold change vs veh, LARP1B / RFU, RASA1 / Fold change vs veh, RASA1 / RFU, RB1 / Fold change vs veh, RB1 / RFU, PPFIA1 / Fold change vs veh, PPFIA1 / RFU, MAT2A / Fold change vs veh, MAT2A / RFU, CCT5 / Fold change vs veh, CCT5 / RFU, WDR92 / Fold change vs veh, WDR92 / RFU, CUX1 / Fold change vs veh, CUX1 / RFU, TTC7A / Fold change vs veh, TTC7A / RFU, TMEM135 / Fold change vs veh, TMEM135 / RFU, DEPTOR / Fold change vs veh, DEPTOR / RFU, CPM / Fold change vs veh, CPM / RFU, DNAJB6 / Fold change vs veh, DNAJB6 / RFU, CACNA2D3 / Fold change vs veh, CACNA2D3 / RFU, DTX4 / Fold change vs veh, DTX4 / RFU, TFCP2 / Fold change vs veh, TFCP2 / RFU, GMCL1 /// GMCL1P1 / Fold change vs veh, GMCL1 /// GMCL1P1 / RFU, AEBP2 / Fold change vs veh, AEBP2 / RFU, SNHG1 /// SNORD22 /// SNORD25 /// SNORD26 /// SNORD27 /// SNORD28 /// SNORD29 /// SNORD31 / Fold change vs veh, SNHG1 /// SNORD22 /// SNORD25 /// SNORD26 /// SNORD27 /// SNORD28 /// SNORD29 /// SNORD31 / Fold change (Aza/veh), C12orf56 (ProbeSet 11735607_a_at) / Fold change (ACY-1035/veh), C12orf56 (ProbeSet 11735607_a_at) / Fold change (Aza/veh), FGFR1OP (ProbeSet 11751329_s_at) / Fold change (ACY-1035/veh), FGFR1OP (ProbeSet 11751329_s_at) / Fold change (Aza/veh), VPS36 (ProbeSet 11739960_a_at) / Fold change (ACY-1035/veh), VPS36 (ProbeSet 11739960_a_at) / RFU SYPL1 (11715823_x_at) / Fold change /veh SYPL1 (11715823_x_at) / RFU IGFBP7 (11715501_s_at) / Fold change /veh IGFBP7 (11715501_s_at) / RFU REEP3 (11722064_at) / Fold change /veh REEP3 (11722064_at) / RFU IGLL1 (11728026_x_at) / Fold change /veh IGLL1 (11728026_x_at): dose or concentration left out as unconfirmed.

On to `Nc1ccc(-c2cccs2)cc1NC(=O)c1ccc2c(c1)cc(C1CC1)n2CCN1CCOCC1` [ACY-1035], for which the “RFU, TNKS2” value amounted to 53.51 RFU.

Values taken from article PMC5218480 (PLoS ONE, 2017).
